Results as given in publication PMC12627933, “A First-In-Human Study of the SUMOylation Inhibitor Subasumstat in Patients with Advanced/Metastatic Solid Tumors or Relapsed/Refractory Hematologic Malignancies” (Cancer Research Communications, 2025).
Entries after “also recorded” stand apart in the source; their conditions may differ. Like-named read-outs stand apart in the source and are kept apart here.

Key:
[1] = Dose-limiting toxicities in cycle 1 and determination of MTD/RP2D (phase I dose escalation); format: in vivo; details: for n with DLTs during cycle 1: N = 6
Method: This study comprised two parts: a phase I dose escalation and a phase II dose expansion (Fig. 1). In the dose-escalation phase, patients were enrolled to receive subasumstat intravenously as a 1-hour (±10 minutes) infusion on days 1, 4, 8, and 11 of a 21-day cycle (biweekly schedule). […] Dose escalation was based on cohort with an adaptive design using Bayesian logistic regression modeling with overdose control. The starting dose of subasumstat was based on Good Laboratory Practice animal toxicity studies and supported by the estimation of a minimum anticipated biologically effective level. A detailed description of dose-limiting toxicities (DLT) is presented in the Supplementary Methods.
The occurrence of DLTs was assessed during cycle 1 (DLTs are described in the Supplementary Methods). Treatment-emergent adverse events (TEAE) were graded according to NCI Common Terminology Criteria for Adverse Events version 5.0, except for cytokine release syndrome (CRS), which was graded according to the American Society for Transplantation and Cellular Therapy Consensus Grading for CRS ([20]).
It was anticipated that approximately 70 DLT-evaluable patients would be enrolled for dose escalation. The safety analysis set included all patients who received at least one dose, even if incomplete, of subasumstat. […] The overall response rate (ORR) was defined as the proportion of patients who achieved complete response and partial response (PR) during the study. The disease control rate (DCR) was defined as the proportion of patients who achieved […] as per RECIST v1.1 for solid tumors or Lugano classification for lymphomas. […] Progression-free survival was summarized descriptively using the Kaplan–Meier method.
17. History of allogeneic tissue or solid organ transplant.
18. Second malignancy within the previous 3 years, except treated basal cell or localized squamous skin carcinomas, localized prostate cancer, cervical carcinoma in situ, resected colorectal adenomatous polyps, breast cancer in situ, or other malignancy for which the patient is not on active anticancer therapy.
19. Female patients who are lactating and breastfeeding or have a positive serum pregnancy test during the screening period or a positive urine pregnancy test on day 1 before first dose of study drug.
Definition of dose-limiting toxicities (DLTs) for phase I only
DLTs were defined as any AEs occurring in cycle 1 (unless considered unrelated to the study drug) with the following characteristics:
2. Nonfebrile grade 4 neutropenia (absolute neutrophil count [ANC] <0.5 ×
If myeloid growth factors are used, the event will be considered as DLT irrespective of the duration. […]
temperature of ≥38°C for ≥1 hour.
4. Grade 4 thrombocytopenia lasting ≥7 consecutive days. A platelet count <10
5. Grade 3 thrombocytopenia lasting longer than 14 days or accompanied by grade 2 bleeding or requiring transfusion.
6. Delay in the initiation of cycle 2 by ≥14 days due to a lack of adequate recovery of treatment-related hematological or nonhematologic toxicities.
7. Grade ≥3 nonhematologic toxicity with the following exceptions:
• Grade 3 arthralgia/myalgia that responds to nonsteroidal anti-inflammatory […]
• Grade 3 fatigue lasting fewer than 7 days.
• Grade 3 endocrine disorder that is managed with or without therapy and the patient is asymptomatic.
• Grade 3 or 4 inflammatory reaction attributed to a local antitumor […]
• Grade 3 infusion-related actions that resolves within 6 hours with appropriate clinical management.
• Grade 3 cytokine release syndrome that resolves to grade ≤1 in less than 7 days without end-organ damage.
• Asymptomatic laboratory changes (other than renal and hepatic laboratory values) that can be successfully supplemented (reversion of grade 4

[2] = Pharmacokinetics after 1-hour intravenous infusion (non-compartmental); format: in vivo, human; details: for half-life: across all dose levels, read-out: Terminal disposition phase half-life
Method: Subasumstat PK were evaluated after the first dose on C1D1 and cycle 1 day 8 (C1D8). The parameters included maximum observed plasma concentration (Cmax), time to first occurrence of Cmax, area under the plasma concentration–time curve from time 0 to the last measurable concentration (AUC0–t) or from time 0 extrapolated to time infinity (AUC0–∞), terminal disposition phase half-life, total clearance, and volume of distribution at steady state. PK parameters were estimated from concentration–time profiles for the PK analysis set, using non-compartmental methods, with Phoenix WinNonlin (RRID: SCR_024504).

[3] = test system: lymphoma and pancreatic cancer xenografts; design: method as in PMID 33631934; details: cited from earlier work

For `Cc1sc(C(=O)c2cncnc2N[C@@H]2C[C@H](COS(N)(=O)=O)[C@@H](O)C2)cc1[C@@H]1NCCc2ccc(Cl)cc21` [subasumstat], which “n with DLTs during cycle 1” value ([1]; 60 mg BIW) is on record?
Its value is 1.

What about the “Description of DLT” value ([1]; 60 mg BIW, subasumstat reduced to 40 mg BIW) of the same compound?
The value was “Transient grade 3 ALT/AST”.

And the “n with DLTs during cycle 1” value ([1]; 90 mg BIW)?
The value was 1.

What about the “Description of DLT” value ([1]; 90 mg BIW, study treatment discontinued) of the same compound?
Its value is “Grade 3 pneumonitis”.

What about the “n with DLTs during cycle 1” value ([1]; 120 mg BIW) of the same compound?
Its value is 2.

What about the “Description of DLT” value ([1]; 120 mg BIW, n = 1 each) of the same compound?
Its value is “Grade 3 stomatitis; also recorded: Grade 3 cognitive disorder”.

What about the “Biologically / pharmacodynamically active dose” value ([1]; across a range of pharmacodynamic measures) of the same compound?
Its value is at least 60 mg.

And the “Patients reporting DLTs” value ([1]; phase I, 74 of 84 DLT-evaluable, all in twice weekly cohorts)?
Its value is “four”.

And the MTD ([1]; twice weekly (days 1, 4, 8, 11 of 21-day cycle), intravenous)?
Its MTD is 120 mg.

What about the “Recommended phase II dose (RP2D)” value ([1]; twice weekly, intravenous) of the same compound?
Its value is 90 mg.

And the “Time of maximum plasma and blood concentrations” value ([2]; after dose (end of infusion), intravenous, C1D1 and C1D8, phase I)?
The value was “approximately 1 hour”.

And the “Increase of Cmax, AUC0–t and AUC0–∞ with dose” value ([2]; dose range 3 to 120 mg, C1D1 and C1D8)?
The value was “approximately dose-proportional”.

What about the half-life ([2]; human, intravenous, plasma) of the same compound?
Its half-life is 3.35 to 9.31 h.

And the clearance ([2]; human, intravenous, stated as lower in blood compared with plasma, matrix of the range not stated explicitly)?
The clearance was 38.2 to 76 mL/min.

What about the Vd ([2]; human, intravenous, stated as lower in blood compared with plasma, matrix of the range not stated explicitly, read-out: Volume of distribution at steady state) of the same compound?
Its Vd is 13.7 to 38.8 L.

And the half-life ([2]; human, whole blood, intravenous, blood)?
The half-life was 2.87 to 9.19 h.

And the “Accumulation in plasma after multiple administrations” value ([2]; phase II, 90 mg twice weekly, C1D4, C1D8, C2D1, C2D8 vs C1D1)?
Its value is “no apparent accumulation”.

What about the Antitumor activity ([3]; immunocompromised mice) of the same compound?
The Antitumor activity was “shows antitumor activity”.

And the SUMOylation in tumors ([3]; xenograft models)?
The SUMOylation in tumors was “inhibits SUMOylation in tumors”.
